# Results published in ChEMBL document CHEMBL1201861, “Genomics of Drug Sensitity in Cancer screening data, Wellcome Trust Sanger Institute”.
# Columns and labels:
# Assay in all cases: cells
# MMAC-SF = type: functional, cell-based, Homo sapiens; details: Homo sapiens, MMAC-SF;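 further: growth inhibition of human MMAC-SF cells, read out with a cell viability assay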
# Description: SANGER: Inhibition of human MMAC-SF cell growth in a cell viability assay.
# RPMI-2650 = type: functional, cell-based, Homo sapiens; details: Homo sapiens, RPMI-2650
# Description: SANGER: Inhibition of human RPMI-2650 cell growth in a cell viability assay.
# UMC-11 = type: functional, cell-based, Homo sapiens; details: Homo sapiens, UMC-11;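 further: growth inhibition of UMC-11 cells, read out with a cell viability assay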
# Description: SANGER: Inhibition of human UMC-11 cell growth in a cell viability assay.
# LXF-289 cell line = type: functional, cell-based, Homo sapiens; details: Homo sapiens, LXF-289
# Description: SANGER: Inhibition of human LXF-289 cell growth in a cell viability assay.
# NCI-H2126 = type: functional, cell-based, Homo sapiens; details: Homo sapiens, NCI-H2126;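 further: growth inhibition of the cancer cell line, determined with a cell viability readout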
# Description: SANGER: Inhibition of human NCI-H2126 cell growth in a cell viability assay.
# SW872 = type: functional, cell-based, Homo sapiens; details: Homo sapiens, SW872;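 further: growth inhibition of SW872 cells, read out by a viability assay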
# Description: SANGER: Inhibition of human SW872 cell growth in a cell viability assay.
# S-117 = type: functional, cell-based, Homo sapiens; details: Homo sapiens, S-117
# Description: SANGER: Inhibition of human S-117 cell growth in a cell viability assay.
# CWR22R = type: functional, cell-based, Homo sapiens; details: Homo sapiens, 22Rv1;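 further: growth inhibition of 22Rv1 cells, read out with a cell viability assay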
# Description: SANGER: Inhibition of human 22RV1 cell growth in a cell viability assay.
# SNU1 = type: functional, cell-based; details: Homo sapiens;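 further: growth inhibition of human NCI-SNU-1 cells, measured with a cell viability assay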
# Description: SANGER: Inhibition of human NCI-SNU-1 cell growth in a cell viability assay.
# A2780 = type: functional, cell-based, Homo sapiens; details: Homo sapiens, A2780;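 further: growth inhibition of A2780 cells, read out with a cell viability assay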
# Description: SANGER: Inhibition of human A2780 cell growth in a cell viability assay.
# KP-4 = type: functional, cell-based, Homo sapiens; details: Homo sapiens, KP-4; read-out: IC50;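 further: human KP-4 cells, with growth inhibition read out through a cell viability assay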
# Description: SANGER: Inhibition of human KP-4 cell growth in a cell viability assay.
# HEC-1 = type: functional, cell-based, Homo sapiens; details: Homo sapiens, HEC-1;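 further: growth inhibition of the cell line, read out with a cell viability assay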
# Description: SANGER: Inhibition of human HEC-1 cell growth in a cell viability assay.
# HT-1376 = type: functional, cell-based, Homo sapiens; details: Homo sapiens, HT-1376
# Description: SANGER: Inhibition of human HT-1376 cell growth in a cell viability assay.
# MDA-MB-415 = type: functional, cell-based; details: Homo sapiens
# CAL-51 = type: functional, cell-based, Homo sapiens; details: Homo sapiens, CAL-51;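 further: human CAL-51 cell line, growth inhibition read out via a cell viability assay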
# Description: SANGER: Inhibition of human CAL-51 cell growth in a cell viability assay.
# IGROV-1 = type: functional, cell-based, Homo sapiens; details: Homo sapiens, IGROV-1;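 further: reduction of IGROV-1 cell growth, read out with a viability assay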
# Description: SANGER: Inhibition of human IGROV-1 cell growth in a cell viability assay.
# NCI-H650 = type: functional, cell-based, Homo sapiens; details: Homo sapiens, NCI-H650;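 further: growth inhibition of NCI-H650 cells, read out by a viability assay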
# Description: SANGER: Inhibition of human NCI-H650 cell growth in a cell viability assay.
# D-502MG = type: functional, cell-based, Homo sapiens; details: Homo sapiens, D-502MG
# Description: SANGER: Inhibition of human D-502MG cell growth in a cell viability assay.
# CP50-MEL-B = type: functional, cell-based, Homo sapiens; details: Homo sapiens, CP50-MEL-B;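 further: growth inhibition of the human cell line, measured with a cell viability read-out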
# Description: SANGER: Inhibition of human CP50-MEL-B cell growth in a cell viability assay.
# HCC1395 = type: functional, cell-based, Homo sapiens; details: Homo sapiens, HCC1395;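 further: growth inhibition of HCC1395 cells, read out by a cell viability assay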
# Description: SANGER: Inhibition of human HCC1395 cell growth in a cell viability assay.
# SK-N-DZ = type: functional, cell-based, Homo sapiens; details: Homo sapiens, SK-N-DZ;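 further: growth inhibition of the cancer cell line, read out through a viability assay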
# Description: SANGER: Inhibition of human SK-N-DZ cell growth in a cell viability assay.
# BB30-HNC = type: functional, cell-based, Homo sapiens; details: Homo sapiens, BB30-HNC;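 further: growth inhibition of the cultured cell line, read out by a cell viability assay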
# Description: SANGER: Inhibition of human BB30-HNC cell growth in a cell viability assay.
# Ramos-2G6-4C10 = type: functional, cell-based; details: Homo sapiens;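 further: growth inhibition of the cell line, measured by a cell viability read-out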
# Description: SANGER: Inhibition of human Ramos-2G6-4C10 cell growth in a cell viability assay.
# BXPC-3 = type: functional, cell-based, Homo sapiens; details: Homo sapiens, BXPC-3;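 further: growth inhibition of human BxPC-3 cells, read out by a cell viability assay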
# Description: SANGER: Inhibition of human BxPC-3 cell growth in a cell viability assay.
# C-33-A = type: functional, cell-based, Homo sapiens; details: Homo sapiens, C-33-A;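 further: cell viability assay measuring growth inhibition of C-33-A cells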
# Description: SANGER: Inhibition of human C-33-A cell growth in a cell viability assay.
# NCI-H2087 = type: functional, cell-based, Homo sapiens; details: Homo sapiens, NCI-H2087;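 further: growth inhibition determined with a cell viability readout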
# Description: SANGER: Inhibition of human NCI-H2087 cell growth in a cell viability assay.
# HO-1-N-1 = type: functional, cell-based, Homo sapiens; details: Homo sapiens, HO-1-N-1;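 further: growth inhibition of human HO-1-N-1 cells, read out with a cell viability assay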
# Description: SANGER: Inhibition of human HO-1-N-1 cell growth in a cell viability assay.
# K562 = type: functional, cell-based; details: Homo sapiens
# Description: SANGER: Inhibition of human K-562 cell growth in a cell viability assay.
# TGBC24TKB = type: functional, cell-based, Homo sapiens; details: Homo sapiens, TGBC24TKB;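 further: growth inhibition of human TGBC24TKB cells, read out with a cell viability assay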
# Description: SANGER: Inhibition of human TGBC24TKB cell growth in a cell viability assay.
# NCI-H2452 = type: functional, cell-based, Homo sapiens; details: Homo sapiens, NCI-H2452;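 further: growth inhibition of NCI-H2452 cells, read out with a cell viability assay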
# Description: SANGER: Inhibition of human NCI-H2452 cell growth in a cell viability assay.
# C3A = type: functional, cell-based, Homo sapiens; details: Homo sapiens, C3A;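 further: growth inhibition of C3A human cells, quantified with a cell viability readout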
# Description: SANGER: Inhibition of human C3A cell growth in a cell viability assay.
# EM-2 = type: functional, cell-based; details: Homo sapiens;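 further: growth inhibition of EM-2 cells, read out with a cell viability assay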
# Description: SANGER: Inhibition of human EM-2 cell growth in a cell viability assay.
# GAMG = type: functional, cell-based, Homo sapiens; details: Homo sapiens, GAMG;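 further: cell growth inhibition measured by a viability assay in the GAMG human cell line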
# Description: SANGER: Inhibition of human GAMG cell growth in a cell viability assay.
# OCI-AML2 = type: functional, cell-based; details: Homo sapiens;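 further: growth inhibition of OCI-AML2 cells, read out with a cell viability assay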
# Description: SANGER: Inhibition of human OCI-AML2 cell growth in a cell viability assay.
# A3-KAW = type: functional, cell-based; details: Homo sapiens;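 further: growth inhibition of human A3-KAW cells, read out with a cell viability assay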
# Description: SANGER: Inhibition of human A3-KAW cell growth in a cell viability assay.
# L-363 = type: functional, cell-based; details: Homo sapiens
# Description: SANGER: Inhibition of human L-363 cell growth in a cell viability assay.
# KNS-42 = type: functional, cell-based, Homo sapiens; details: Homo sapiens, KNS-42;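 further: growth inhibition of KNS-42 cells, read out with a cell viability assay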
# Description: SANGER: Inhibition of human KNS-42 cell growth in a cell viability assay.
# HOS = type: functional, cell-based, Homo sapiens; details: Homo sapiens, HOS;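 further: growth inhibition of human HOS cells, read out with a cell viability assay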
# Description: SANGER: Inhibition of human HOS cell growth in a cell viability assay.
# DMS-79 = type: functional, cell-based; details: Homo sapiens;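 further: growth inhibition measured with a cell viability assay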
# Description: SANGER: Inhibition of human DMS-79 cell growth in a cell viability assay.
# DJM-1 = type: functional, cell-based, Homo sapiens; details: Homo sapiens, DJM-1;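 further: growth inhibition of human DJM-1 cells, read out by a cell viability assay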
# Description: SANGER: Inhibition of human DJM-1 cell growth in a cell viability assay.
# J-RT3-T3-5 = type: functional, cell-based; details: Homo sapiens;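 further: cell viability assay measuring growth inhibition of human J-RT3-T3-5 cells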
# Description: SANGER: Inhibition of human J-RT3-T3-5 cell growth in a cell viability assay.
# AU565 = type: functional, cell-based, Homo sapiens; details: Homo sapiens, AU565;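 further: cell viability assay measuring growth inhibition of human AU565 cells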
# Description: SANGER: Inhibition of human AU565 cell growth in a cell viability assay.
# SK-N-AS = type: functional, cell-based, Homo sapiens; details: Homo sapiens, SK-N-AS;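 further: growth inhibition of human SK-N-AS cells, measured with a cell viability assay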
# Description: SANGER: Inhibition of human SK-N-AS cell growth in a cell viability assay.
# COLO-684 = type: functional, cell-based; details: Homo sapiens
# Description: SANGER: Inhibition of human COLO-684 cell growth in a cell viability assay.
# MV4-11 = type: functional, cell-based, MV-4-11; details: Homo sapiens;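 further: cell viability readout measuring growth inhibition of human MV-4-11 cells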
# Description: SANGER: Inhibition of human MV-4-11 cell growth in a cell viability assay.
# SK-MEL-24 = type: functional, cell-based; details: Homo sapiens;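 further: growth inhibition read out by a cell viability assay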
# Description: SANGER: Inhibition of human SK-MEL-24 cell growth in a cell viability assay.
# SW1463 = type: functional, cell-based, Homo sapiens; details: Homo sapiens, SW1463;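 further: growth inhibition of SW1463 cells, determined with a cell viability assay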
# Description: SANGER: Inhibition of human SW1463 cell growth in a cell viability assay.
# OCUB-M = type: functional, cell-based, Homo sapiens; details: Homo sapiens, OCUB-M;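 further: growth inhibition of the cancer cell line, read out through a cell viability assay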
# Description: SANGER: Inhibition of human OCUB-M cell growth in a cell viability assay.
# KYSE-70 cell line = type: functional, cell-based, Homo sapiens; details: Homo sapiens, KYSE-70;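 further: cell viability assay read-out, with IC50 expressing suppression of KYSE-70 cell growth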
# Description: SANGER: Inhibition of human KYSE-70 cell growth in a cell viability assay.
# DSH1 = type: functional, cell-based, Homo sapiens; details: Homo sapiens, DSH1;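 further: growth inhibition of human DSH1 cells, measured with a cell viability readout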
# Description: SANGER: Inhibition of human DSH1 cell growth in a cell viability assay.
# RCM-1 = type: functional, cell-based, Homo sapiens; details: Homo sapiens, RCM-1;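 further: growth inhibition of the RCM-1 line, determined with a cell viability readout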
# Description: SANGER: Inhibition of human RCM-1 cell growth in a cell viability assay.
smiles,measurement,setting,value
COC(=O)CNC(=O)C(=O)OC,IC50,MMAC-SF,881 µM
same,IC50,RPMI-2650,279 µM
same,IC50,UMC-11,147 µM
same,IC50,LXF-289 cell line,260 µM
same,IC50,NCI-H2126,1800 µM
same,IC50,SW872,603 µM
same,IC50,S-117,3860 µM
same,IC50,CWR22R,304 µM
same,IC50,SNU1,> 4000 µM
same,IC50,A2780,2030 µM
same,IC50,KP-4,1800 µM
same,IC50,HEC-1,954 µM
same,IC50,HT-1376,389 µM
same,IC50,MDA-MB-415,2930 µM
same,IC50,CAL-51,238 µM
same,IC50,IGROV-1,1390 µM
same,IC50,NCI-H650,269 µM
same,IC50,D-502MG,> 4000 µM
same,IC50,CP50-MEL-B,> 4000 µM
same,IC50,HCC1395,1540 µM
same,IC50,SK-N-DZ,3090 µM
same,IC50,BB30-HNC,148 µM
same,IC50,Ramos-2G6-4C10,100 µM
same,IC50,BXPC-3,639 µM
same,IC50,C-33-A,> 4000 µM
same,IC50,NCI-H2087,108 µM
same,IC50,HO-1-N-1,1070 µM
same,IC50,K562,2030 µM
same,IC50,TGBC24TKB,> 4000 µM
same,IC50,NCI-H2452,966 µM
same,IC50,C3A,159 µM
same,IC50,EM-2,234 µM
same,IC50,GAMG,1380 µM
same,IC50,OCI-AML2,501 µM
same,IC50,A3-KAW,15.8 µM
same,IC50,L-363,150 µM
same,IC50,KNS-42,229 µM
same,IC50,HOS,636 µM
same,IC50,DMS-79,> 4000 µM
same,IC50,DJM-1,215 µM
same,IC50,J-RT3-T3-5,1740 µM
same,IC50,AU565,> 4000 µM
same,IC50,SK-N-AS,971 µM
same,IC50,COLO-684,560 µM
same,IC50,MV4-11,276 µM
same,IC50,SK-MEL-24,> 4000 µM
same,IC50,SW1463,1780 µM
same,IC50,OCUB-M,> 4000 µM
same,IC50,KYSE-70 cell line,551 µM
same,IC50,DSH1,96.2 µM
same,IC50,RCM-1,2980 µM
COc1cc([C@@H]2c3cc4c(cc3[C@@H](O[C@@H]3O[C@@H]5CO[C@@H](C)O[C@H]5[C@H](O)[C@H]3O)[C@H]3COC(=O)[C@H]23)OCO4)cc(OC)c1O [ETOPOSIDE],IC50,MMAC-SF,6.88 µM
same,IC50,RPMI-2650,0.572 µM
same,IC50,UMC-11,> 16 µM
same,IC50,LXF-289 cell line,2.08 µM
same,IC50,NCI-H2126,10.4 µM
same,IC50,SW872,0.64 µM
same,IC50,S-117,> 16 µM
same,IC50,CWR22R,1.53 µM
same,IC50,SNU1,1.75 µM
same,IC50,A2780,1.11 µM
same,IC50,KP-4,0.416 µM
same,IC50,HEC-1,2.37 µM
same,IC50,HT-1376,5.82 µM
same,IC50,MDA-MB-415,> 16 µM
same,IC50,CAL-51,1.08 µM
same,IC50,IGROV-1,0.171 µM
same,IC50,NCI-H650,1.71 µM
same,IC50,D-502MG,> 16 µM
same,IC50,CP50-MEL-B,> 16 µM
same,IC50,HCC1395,> 16 µM
same,IC50,SK-N-DZ,> 16 µM
same,IC50,BB30-HNC,0.0642 µM
same,IC50,Ramos-2G6-4C10,9.94 µM
same,IC50,BXPC-3,> 16 µM
same,IC50,C-33-A,0.862 µM
same,IC50,NCI-H2087,0.763 µM
same,IC50,HO-1-N-1,2.38 µM
same,IC50,K562,> 16 µM
same,IC50,TGBC24TKB,> 16 µM
same,IC50,NCI-H2452,> 16 µM
same,IC50,C3A,7.93 µM
same,IC50,EM-2,1.58 µM
same,IC50,GAMG,2.61 µM
same,IC50,OCI-AML2,0.559 µM
same,IC50,A3-KAW,0.358 µM
same,IC50,L-363,6.59 µM
same,IC50,KNS-42,13.7 µM
same,IC50,HOS,0.474 µM
same,IC50,DMS-79,> 16 µM
same,IC50,DJM-1,0.203 µM
same,IC50,J-RT3-T3-5,1.59 µM
same,IC50,AU565,2.61 µM
same,IC50,SK-N-AS,> 16 µM
same,IC50,COLO-684,> 16 µM
same,IC50,MV4-11,0.151 µM
same,IC50,SK-MEL-24,> 16 µM
same,IC50,SW1463,> 16 µM
same,IC50,OCUB-M,0.0446 µM
same,IC50,KYSE-70 cell line,> 16 µM
same,IC50,DSH1,2.36 µM
same,IC50,RCM-1,> 16 µM
